# According to a melting point compilation (Tetko et al.; mined from patent text by program, amines drawn as free bases though some values may be those of a salt):
row,melting point [°C],SMILES
1,117 to 118,CCc1ccc(S(=O)(=O)N(c2ccc(Cl)cc2[N+](=O)[O-])C(C)C)cc1
2,106 to 107,CCOC(=O)C(=Cc1cccc([N+](=O)[O-])c1)C(=O)C(Cl)(Cl)Cl
3,89 to 90,Cc1csc(C(O)(c2nccs2)C(F)(F)F)n1 (stereo not drawn)
4,182 to 185,O=C(NC(=O)c1c(F)cccc1F)Nc1ccc(OC(F)(F)C(F)F)c(C(F)(F)F)c1
5,193 to 195,CCOCc1nc2c(N)nc3cc(-c4ccc(F)c(F)c4)cnc3c2n1CC(C)(C)O
6,68 to 70,CC(C)(C)C(=O)C=Cc1cccnc1
7,142 to 143,N#Cc1ccc(-c2ccc(OCCCCC(=O)NO)cc2)cc1
8,53 to 55,CCCNc1nc(N)nc(N(CCC)c2ccc(OC)c(F)c2)n1
9,152 to 153,CCCCCC(C)N(Cc1ccc(CC(C)(C)C)s1)C(Nc1ccc(OC)cc1OC)=C1C(=O)OC(C)(C)OC1=O (stereo not drawn)
10,160 to 162,O=C1CCC(N2Cc3c(OCc4ccc(CSc5nc6ccccc6[nH]5)cc4)cccc3C2=O)C(=O)N1 (stereo not drawn)
11,98 to 99,CN(C)C(=O)N1CCc2ccc(Nc3nc4c(-c5cc(Cl)ccc5OCC(F)F)cccn4n3)cc2CC1
12,175 to 178,O=C(O)C1C=CCn2c(=O)n(CO)c(=O)n21 (stereo not drawn)
13,178 to 179,CCOc1cccc(-c2ccc(C3CCN(S(=O)(=O)C(C)(C)C(=O)O)CC3)cc2C)n1
14,103 to 105,ClC(=NN=Cc1cccnc1)c1cccnc1
15,43 to 44,O=[N+]([O-])c1cc(-c2ccccc2)ccc1Cl
16,297 to 299,COc1ccc(C2C3=C(COC3=O)Nc3ccc4cc[nH]c4c32)cc1O (stereo not drawn)
17,67 to 68,COC(=O)CC(=O)c1cc(CN2CCOCC2)sc1Cl
18,87 to 90,CC(CC1(c2ccccc2)C=CCC=C1)N(C)C (stereo not drawn)

row,melting point [°C],SMILES
1,30 to 40,C[Si](C)(CCl)c1ccc(-c2ccccc2)cc1
2,247 to 251,O=C(COc1ccc(-c2ccccc2)cc1)Nc1cscc1C(=O)O
3,240 to 242,Cc1nc(N)c2nc(C)n(NC3CCOCC3)c2c1C
4,90,CC(C)(C)C(=O)COc1ccc(-c2ccc(Cl)cc2)cc1
5,162 to 163,COc1c(NC(=O)c2ccc(Br)cc2)cccc1[N+](=O)[O-]
6,80 to 81,CCCCCCCCN(Cc1ccc(CN(CCCCCCCC)OC(=O)c2ccccc2)cc1)OC(=O)c1ccccc1
7,90 to 91,CN1CCN(C)C1=Nc1ccccc1-c1ccccc1
8,202 to 203,Cc1ccc(Cl)cc1N1CN(Cc2ccccc2)CN(Cc2ccccc2)C1=S
9,147 to 149,COc1ccc(N(C)c2nc(C)nc3oc4c(c23)CCCC4)cc1
10,175 to 182,COc1ccc(C2CN(C(C)=O)C(=O)O2)cc1OC (stereo not drawn)
11,277,COc1ccc2c(c1)c1c3c(c(-c4ccccc4Cl)cc1n2CCC(=O)O)C(=O)NC3=O
12,131 to 133,CC(=O)Nc1c(C(=O)c2ccccc2)[nH]c2cccc(F)c12
13,110 to 112,C[Si](C)(C)C1([Si](C)(C)C)c2ccccc2-c2ccccc21
14,192,COC(=O)C1=C(C)N(Cc2ccccc2[N+](=O)[O-])C(C)=C(C(=O)OC)C1c1cccc2nonc12
15,83 to 87,COC(=O)C(O)C(CC1CCCCC1)NC(=O)C(Cc1c[nH]cn1)NC(=O)C(CC(=O)N1CCOCC1)Cc1cccc2ccccc12 (mixture of isomers)
16,226 to 227,COc1cc2ncnc(NC3=CC(=O)C(N4CCCCC4)=CC3=O)c2cc1OC
17,289 to 291,Nc1ccccc1CCc1n[nH]c2c1c(=O)n(-c1ccccc1)c1ncccc21
18,180 to 181,O=C(O)CCc1oc(N2CCOCC2)nc1-c1ccc(Cl)cc1

row,SMILES,melting point [°C]
1,CN1Cc2c(-c3nc(CN4C(=O)c5ccccc5C4=O)no3)ncn2-c2cccc(Cl)c2C1=O,237 to 239
2,Cc1nc(CCl)c(Br)s1,154 to 156
